Data reported in US20210238184A1, “THERAPEUTIC COMPOUNDS” (Genentech, Inc., priority 2018, published 2021).

Tests used:
[1] = target: TEAD2 YAP50-100 (Homo sapiens, UniProt Q15562); assay: TEAD2:YAP50-100 protein-protein interaction HTRF (TR-FRET) assay; details: His-tagged TEAD YAP binding domain (aa 217-447), biotinylated YAP peptide aa 50-100; 30 min pre-incubation, 60 min at room temperature; read-out: TEAD2 YAP50-100 HTRF WuXi EC50
Procedure: (§1) Purified His-tagged TEAD protein (YAP Binding Domain, amino acids 217-447) is pre-incubated with Europium labelled anti-His antibody tracer (Perkin Elmer Cat #AD0110). Small molecule Inhibitors are then incubated with the TEAD-Eu protein complex for 30 minutes to allow for binding to TEAD protein. Biotinylated YAP peptide (AA's 50-100) that has been pre-incubated with streptavidin x1665 acceptor (CIS-Bio Cat #610SAXAC) is added to the compound-TEAD mix. The TEAD-YAP-inhibitor mixture is then incubated for 60 minutes at room temperature. All reactions are carried out in a polystyrene plate. After 60 minutes, the plate is read on a plate reader using TR-FRET mode with wavelengths of 665 nm/615 nm. If YAP binds to TEAD as expected, a TR-FRET signal results from the proximity of YAP and TEAD after binding. If an inhibitor such as peptide 17 (Selleckchem Cat #S8164) interferes with YAP-TEAD binding, the disruption of the YAP:TEAD interaction results in a decrease in TR-FRET signal. The potency of compounds as YAP:TEAD protein-protein interaction (PPi) inhibitors is determined by an IC50 or EC50 value generated using a non-linear four parameter curve fit.

[2] = target: TEAD3 YAP50-100 (Homo sapiens, UniProt Q99594); assay: TEAD3:YAP50-100 protein-protein interaction HTRF (TR-FRET) assay; details: His-tagged TEAD YAP binding domain (aa 217-447), biotinylated YAP peptide aa 50-100; 30 min pre-incubation, 60 min at room temperature; read-out: TEAD3 YAP50-100 HTRF WuXi EC50
Procedure: as §1

TEAD3 YAP50-100, sequence (Q99594 216-435 limits assumed): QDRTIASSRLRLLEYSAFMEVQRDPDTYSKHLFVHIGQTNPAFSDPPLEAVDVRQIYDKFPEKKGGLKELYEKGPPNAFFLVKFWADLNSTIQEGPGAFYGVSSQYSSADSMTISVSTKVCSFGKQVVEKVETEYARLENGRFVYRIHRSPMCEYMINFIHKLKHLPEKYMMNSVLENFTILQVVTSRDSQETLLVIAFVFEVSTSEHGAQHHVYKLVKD
TEAD2 YAP50-100, sequence (Q15562 217-447): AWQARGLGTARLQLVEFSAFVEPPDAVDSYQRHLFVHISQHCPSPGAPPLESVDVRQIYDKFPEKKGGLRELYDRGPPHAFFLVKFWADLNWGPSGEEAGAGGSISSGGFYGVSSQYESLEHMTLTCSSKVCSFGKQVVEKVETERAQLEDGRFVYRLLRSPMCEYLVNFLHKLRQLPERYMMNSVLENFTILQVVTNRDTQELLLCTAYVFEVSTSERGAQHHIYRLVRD

Row | EC50 [1] [nM] | EC50 [2] [nM] | SMILES
1 | 1100 | 567 | CN(CCO)C(=O)c1cnn2c(=O)cc(-c3ccc(C4CCCCC4)cc3)[nH]c12 [Example 5, 5-(4-cyclohexylphenyl)-N-(2-hydroxyethyl)-N-methyl-7-oxo-4,7-dihydropyrazolo[1,5-a]pyrimidine-3-carboxamide]
2 | 342 | 16 | CN(C)C(=O)c1cnn2c(=O)cc(-c3ccc(C4CCCC4)cc3)[nH]c12 [Example 3, 5-(4-Cyclopentylphenyl)-N,N-dimethyl-7-oxo-4,7-dihydropyrazolo[1,5-a]pyrimidine-3-carboxamide]
3 | 333 | 1300 | CC1(O)CN(C(=O)c2cnn3c(=O)cc(-c4ccc(C5CCCCC5)cc4)[nH]c23)C1 [Example 9, 5-(4-Cyclohexylphenyl)-3-(3-hydroxy-3-methylazetidine-1-carbonyl)pyrazolo[1,5-a]pyrimidin-7(4H)-one]
4 | 66 | 19 | CCOC(=O)c1cnn2c(=O)cc(-c3ccc(C4CCCCC4)cc3)[nH]c12 [Example 4, Ethyl 5-(4-cyclohexylphenyl)-7-oxo-4,7-dihydropyrazolo[1,5-a]pyrimidine-3-carboxylate]
5 | 11 | 32 | CC1CN(C(=O)c2cnn3c(=O)cc(-c4ccc(C5CCCCC5)cc4)[nH]c23)C1 [Example 11, 5-(4-Cyclohexylphenyl)-3-(3-methylazetidine-1-carbonyl)pyrazolo[1,5-a]pyrimidin-7(4H)-one]
6 | 12.5 | 18.5 | CC1(F)CN(C(=O)c2cnn3c(=O)cc(-c4ccc(C5CCCCC5)cc4)[nH]c23)C1 [Example 40, 5-(4-Cyclohexylphenyl)-3-(3-fluoro-3-methylazetidine-1-carbonyl)pyrazolo[1,5-a]pyrimidin-7(4H)-one]
7 | 220 | 21 | CN(C)C(=O)c1cnn2c(=O)cc(-c3ccc(C4CCCC4(C)C)cc3)[nH]c12 (single isomer, unassigned) [Example 21]
8 | 548 | 72 | O=C(c1cnn2c(=O)cc(-c3ccc(C4CCCCC4)cc3)[nH]c12)N1CC(O)C1 [Example 10, 5-(4-Cyclohexylphenyl)-3-(3-hydroxyazetidine-1-carbonyl)pyrazolo[1,5-a]pyrimidin-7(4H)-one]
9 | 87 | 18 | CN(C)C(=O)c1cnn2c(=O)cc(-c3ccc(C4CCCCC4)cc3)[nH]c12 [Example 7, 5-(4-Cyclohexylphenyl)-N,N-dimethyl-7-oxo-4,7-dihydropyrazolo[1,5-a]pyrimidine-3-carboxamide]
10 | 1870 | 28 | CN(C)C(=O)c1cnn2c(=O)cc(-c3ccc(C4CCC4)cc3)[nH]c12 [Example 36, 5-(4-Cyclobutylphenyl)-N,N-dimethyl-7-oxo-4,7-dihydropyrazolo[1,5-a]pyrimidine-3-carboxamide]
11 | 4.5 | 10 | O=C(c1cnn2c(=O)cc(-c3ccc(C4CCCCC4)cc3)[nH]c12)N1CC(CF)C1 [Example 41, 5-(4-Cyclohexylphenyl)-3-(3-(fluoromethyl)azetidine-1-carbonyl)pyrazolo[1,5-a]pyrimidin-7(4H)-one]

The next lines start with the compound.

Row | SMILES | EC50 [1] [nM] | EC50 [2] [nM]
12 | CCOC(=O)c1cnn2c(=O)cc(-c3ccc(C4CCCC4(C)C)cc3)[nH]c12 (single isomer, unassigned) [Example 19] | 270 | 37
13 | CCOC(=O)c1cnn2c(=O)cc(-c3ccc(Oc4ccccc4)c(C)c3)[nH]c12 [Example 14, Ethyl 5-(3-methyl-4-phenoxyphenyl)-7-oxo-4,7-dihydropyrazolo[1,5-a]pyrimidine-3-carboxylate] | 747 | 666
14 | CCOC(=O)c1cnn2c(=O)cc(-c3ccc(C4CCCC4(C)C)cc3)[nH]c12 (single isomer, unassigned) [Example 20] | 187 | 60
15 | O=C(c1cnn2c(=O)cc(-c3ccc(C4CCCCC4)cc3)[nH]c12)N1CC(C(F)(F)F)C1 [Example 39, 5-(4-Cyclohexylphenyl)-3-(3-(trifluoromethyl)azetidine-1-carbonyl)pyrazolo[1,5-a]pyrimidin-7(4H)-one] | 295 | 405
16 | CCOC(=O)c1c(C(C)C)nn2c(=O)cc(-c3ccc(Oc4ccccc4)cc3)[nH]c12 [Example 29, Ethyl 2-isopropyl-7-oxo-5-(4-phenoxyphenyl)-4,7-dihydropyrazolo[1,5-a]pyrimidine-3-carboxylate] | 249 | 124
17 | CCOC(=O)c1cnn2c(=O)cc(-c3ccc(C4CCC(F)(F)CC4)cc3)[nH]c12 [Example 1, Ethyl 5-(4-(4,4-difluorocyclohexyl)phenyl)-7-oxo-4,7-dihydropyrazolo[1,5-a]pyrimidine-3-carboxylate] | 263 | 41
18 | CCOC(=O)c1cnn2c(=O)cc(-c3ccc(OC(C)C)cc3)[nH]c12 [Example 31, Ethyl 5-(4-isopropoxyphenyl)-7-oxo-4,7-dihydropyrazolo[1,5-a]pyrimidine-3-carboxylate] | 4040 | 944
19 | O=C(c1cnn2c(=O)cc(-c3ccc(C4CCCCC4)cc3)[nH]c12)N1CCC(F)(F)C1 [Example 42, 5-(4-Cyclohexylphenyl)-3-(3,3-difluoropyrrolidine-1-carbonyl)pyrazolo[1,5-a]pyrimidin-7(4H)-one] | 14.5 | 39.5
20 | CCNC(=O)c1cnn2c(=O)cc(-c3ccc(Oc4ccccc4)cc3)[nH]c12 [Example 17, N-Ethyl-7-oxo-5-(4-phenoxyphenyl)-4,7-dihydropyrazolo[1,5-a]pyrimidine-3-carboxamide] | 55 | 5000
21 | CCOC(=O)c1c(C)nn2c(=O)cc(-c3ccc(Oc4ccccc4)cc3)[nH]c12 [Example 28, Ethyl 2-methyl-7-oxo-5-(4-phenoxyphenyl)-4,7-dihydropyrazolo[1,5-a]pyrimidine-3-carboxylate] | 3570 | 393
22 | O=C(c1cnn2c(=O)cc(-c3ccc(-c4ccccc4)cc3)[nH]c12)N1CCC1 [Example 35, 5-([1,1′-Biphenyl]-4-yl)-3-(azetidine-1-carbonyl)pyrazolo[1,5-a]pyrimidin-7(4H)-one] | 1630 | 95
23 | C[C@H]1[C@@H](CF)CN1C(=O)c1cnn2c(=O)cc(-c3ccc(C4CCCCC4)cc3)[nH]c12 (single isomer, unassigned) [Example 45] | 8 | 43
24 | CN(C)C(=O)c1cnn2c(=O)cc(-c3ccc(Oc4ccccc4)cc3)[nH]c12 [Example 16, /VA-Dimethyl-7-oxo-5-(4-phenoxyphenyl)-4,7-dihydropyrazolo[1,5-a]pyrimidine-3-carboxamide] | 501 | 1110
25 | CCOC(=O)c1cnn2c(=O)cc(-c3ccc(C4(c5ccccc5)CC4)cc3)[nH]c12 [Example 33, Ethyl 7-oxo-5-(4-(1-phenylcyclopropyl)phenyl)-4,7-dihydropyrazolo[1,5-a]pyrimidine-3-carboxylate] | 2190 | 765
26 | CCOC(=O)c1cnn2c(=O)cc(-c3ccc(C(F)(F)F)c(C)c3)[nH]c12 [Example 26, Ethyl 5-(3-methyl-4-(trifluoromethyl)phenyl)-7-oxo-4,7-dihydropyrazolo[1,5-a]pyrimidine-3-carboxylate] | 956 | 1410
27 | N#CC1CN(C(=O)c2cnn3c(=O)cc(-c4ccc(C5CCCCC5)cc4)[nH]c23)C1 [Example 44] | 5.85 | 13
28 | O=C(c1cnn2c(=O)cc(-c3ccc(C4CCCCC4)cc3)[nH]c12)N1CC[C@@H]1CF [Example 43, (R)-5-(4-cyclohexylphenyl)-3-(2-(fluoromethyl)azetidine-1-carbonyl)pyrazolo[1,5-a]pyrimidin-7(4H)-one] | 22.5 | 28
29 | CCOC(=O)c1cnn2c(=O)cc(-c3ccc(Oc4ccccc4)cc3)[nH]c12 [Example 15, Ethyl 7-oxo-5-(4-phenoxyphenyl)-4,7-dihydropyrazolo[1,5-a]pyrimidine-3-carboxylate] | 836 | 532
30 | CCOC(=O)c1cnn2c(=O)cc(-c3ccc(C(C)(C)C)cc3)[nH]c12 [Example 30] | 1620 | 95
31 | C[C@@H]1[C@H](CF)CN1C(=O)c1cnn2c(=O)cc(-c3ccc(C4CCCCC4)cc3)[nH]c12 (single isomer, unassigned) [Example 46] | 755 | 3100
32 | O=C(c1cnn2c(=O)cc(-c3ccc(C4CCCCC4)cc3)[nH]c12)N1CC(F)(F)C1 [Example 12, 5-(4-Cyclohexylphenyl)-3-(3,3-difluoroazetidine-1-carbonyl)pyrazolo[1,5-a]pyrimidin-7(4H)-one] | 68 | 56
33 | CCOC(=O)c1cnn2c(=O)cc(-c3ccc(-c4ccccc4)cc3)[nH]c12 [Example 34, Ethyl 5-([1,1^1-biphenyl]-4-yl)-7-oxo-4,7-dihydropyrazolo[1,5-a]pyrimidine-3-carboxylate] | 1030 | 41
